Results as given in US20250179029A1, “DEUTERATED RETINOIDAL COMPOUNDS AND SYNTHESIS AND USES THEREOF” (UNIVERSITY OF MARYLAND, BALTIMORE, priority 2022, published 2025).
Where two headings read alike, the source gives them in different places.

Columns and labels:
MCF7 = experiment: MTT antiproliferative assay, MCF7 non-TNBC cells; format: cell-based; details: Homo sapiens, mean of three independent experiments
Description: (§1) Compounds 2, 4, 8 and 9, as well as paclitaxel (PTX) were evaluated over a range of concentrations to examine their antiproliferative activities against two non-TNBC cell lines, MCF7 and SKBR3using the well-established 3-(4,5-dimethylthiazolyl-2)-2,5-diphenyl tetrazolium bromide (MTT) assay.^48,55,56 The parent non-deuterated VNLG-152R (Compound 2) was used as the positive control.
(§2) As presented in Table 1 below, the GI50 values of the deuterated Compounds 4, 8 and 9 against the MCF7 cell are identical to the GI50 value of the parent protio VNLG-152R (Compound 2). In contrast, the SKBR3 cell appears to be more sensitive to the deuterated compounds compared to the parent non-deuterated VNLG-152R (Compound 2). The reason for this difference is not understood at this time. The applicant hypothesizes that the enhanced diffusion of these deuterated molecules across the cell membrane of this cell line may result in enhanced intracellular concentrations and inhibition of its proliferation. Each data point is a mean of replicates from three independent experiments.

SKBR3 = experiment: MTT antiproliferative assay, SKBR3 non-TNBC cells; format: cell-based; details: Homo sapiens, SK-BR-3, mean of three independent experiments
Description: as §1, §2

[1] = Plasma pharmacokinetics after single oral dose in female CD-1 mice; format: in vivo; details: for AUC(0-inf) / MRT (mean residence time) / T1/2 (elimination half-life) / Tmax / Cmax / overall Rank by Total Score: single p.o. dose 10 mg/kg, female CD-1 mice; for AUC(0-inf) / MRT (mean residence time) / T1/2 (elimination half-life) / Tmax / Cmax: plasma; for Cmax: mean of three mice; for clearance from systemic circulation (plasma concentration versus time profile) / systemic exposure: single PO dosing, mice, FIGS. 12A-12C
Description: The PK study was performed by the Certified Research Organization (CRO), Aragen Life Sciences Private Limited (Aragen), Hyderabad, India. All procedures of the present study were in accordance with the guidelines provided by the Committee for the Purpose of Control and Supervision of Experiments on Animals (CPCSEA) as published in The Gazette of India, Jan. 7, 2010. CPCSEA renewal number for institute is 1125/PO/Rc/S/CPCSEA on 13Feb. 2014. Institutional Animal Ethics Committee (IAEC) approval has been taken to initiate the study (IAEC Approval Number: B-011A). The details are presented in the Supplementary Materials.
To minimize the number of mice used in the PK study using a validated LC/MS/MS analysis, both individual (discrete) (set #1: Compound 5, EM=463.2937 and set #2: […], EM=463.2937) and cassette (set #3: Compounds 2, 3, and 7; EMs=459.2686, 462.2874 and 466.3125, respectively, and set #4: Compounds 4, 8, and 9; EMs=460.2749, 464.2999 and 467.3188, respectively) dosing were used.^59,66 The four sets studied were dictated by the exact molecular masses of the compounds as indicated above and in FIG. 3.
The plasma PK profiles were obtained after single oral (PO) dosing of the compounds in mice.
In Table 2, data are presented as the mean of values obtained from three female CD-1 mice. Cmax is the maximum observed plasma concentration. Tmax is the time to maximum concentration. T1/2 is the elimination half-life. AUC represents AUC (0-∞), which is the area under the concentration-time curve from time of dosing extrapolated to infinity. MRT refers to mean residence time. The number in parentheses indicate the rank order from best (1) to worst (8).

[2] = test system: androgen-sensitive and castration-resistant human prostate cancer cells; details: androgen-sensitive and castration-resistant human prostate cancer cells in vitro; cited from earlier work
[3] = test system: MDA-MB-231 tumor xenograft; experiment: Anti-tumor activity in MDA-MB-231 xenograft mouse model; format: in vivo; details: 20 mg/kg, PO, 5 days/week, 16 days
Description: (§3) FIGS. 13A-13D show the anti-tumor activity of VNLG-152R, Compound 4, Compound 8, and Compound 9 in xenograft mouse models. […] In FIGS. 13B and 13D, *=p<0.0001.
(§4) After confirming the improved pharmacokinetic parameters of deuterated compounds 4, 8, and 9, the anti-tumor activity of these compounds was tested in xenograft models of MDA-MB-231 and MDA-MB-468. In both models, the mice for each group were treated with either vehicle (control) or the compounds, each at 20 mg/kg, PO, 5 days/week.

[4] = test system: MDA-MB-468 tumor xenograft; experiment: Anti-tumor activity in MDA-MB-468 xenograft mouse model; format: in vivo; details: 20 mg/kg, PO, 5 days/week, 16 days
Description: as §3, §4

| SMILES | GI50 (MCF7) [nM] | GI50 (SKBR3) [nM] | AUC(0-inf) ([1]; mouse, po) [ng·h/mL] | MRT (mean residence time) [1] [h] | T1/2 (elimination half-life) [1] [h] | Tmax [1] [h] | Cmax [1] [ng/mL] | further results |
| --- | --- | --- | --- | --- | --- | --- | --- | --- |
| CC(=O)O[C@H]1C(=O)[C@@]2(C)[C@H]([C@H](OC(=O)c3ccccc3)[C@]3(O)C[C@H](OC(=O)[C@H](O)[C@@H](NC(=O)c4ccccc4)c4ccccc4)C(C)=C1C3(C)C)[C@]1(OC(C)=O)CO[C@@H]1C[C@@H]2O [Paclitaxel, paclitaxel, reference compound] | 60 ± 120 | 60 ± 120 |  |  |  |  |  |  |
| [2H]c1nc([2H])n(C2([2H])CCC(C)(C)C(/C=C/C(C)=C/C=C/C(C)=C/C(=O)Nc3ccc(F)cc3)=C2C)c1[2H] (racemic) [Compound 5, (±) 4-(Imidazolyl-2″3″5″-D3)-4-(D)-(4′-fluoro(phenyl))-(E)-retinamide] |  |  | 2700 | 5.49 | 4.27 | 0.67 | 500.72 |  |
| [2H]c1c([2H])c(NC(=O)/C=C(C)/C=C/C=C(C)/C=C/C2=C(C)C(n3ccnc3)CCC2(C)C)c([2H])c([2H])c1F (racemic) [Compound 6, (±) 4-Imidazolyl-4(H)-(4′-fluoro(phenyl-2′3′5′6′-D4))-(E)-retinamide] |  |  | 1730 | 4.63 | 4.90 |  | 272.72 | Tmax ([1]; mouse, po, read-out: Tmax): 0.83 h |
| CC1=C(/C=C/C(C)=C/C=C/C(C)=C/C(=O)Nc2ccccc2O)C(C)(C)CCC1n1ccnc1 (centres unmarked) [VNLG-147, (2E,4E,6E,8E)-N-(2-hydroxyphenyl)-9-(3-imidazolyl-2,6,6-trimethylcyclohex-1-enyl)-3,7-dimethylnona-2,4,6,8-tetraenamide] |  |  |  |  |  |  |  | anti-proliferative and anti-metastatic activities [2]: potent |
| [2H]c1nc([2H])n(C2CCC(C)(C)C(/C=C/C(C)=C/C=C/C(C)=C/C(=O)Nc3c([2H])c([2H])c(F)c([2H])c3[2H])=C2C)c1[2H] (racemic) [Compound 7, (±) 4-(Imidazolyl-2″3″5″-D3)-4-(H)-(4′-fluoro(phenyl-2′3′5′6′-D4))-(E)-retinamide] |  |  | 2060 | 2.89 | 4.34 | 0.83 | 454.97 |  |
| [2H]c1nc([2H])n(C2CCC(C)(C)C(/C=C/C(C)=C/C=C/C(C)=C/C(=O)Nc3ccc(F)cc3)=C2C)c1[2H] (racemic) [Compound 3, (±) 4-(Imidazolyl-2″3″5″-D3)-4-(H)-(4′-fluoro(phenyl))-(E)-retinamide] |  |  | 1740 | 3.57 | 8.39 | 1.33 | 151.17 |  |
| [2H]c1nc([2H])n(C2([2H])CCC(C)(C)C(/C=C/C(C)=C/C=C/C(C)=C/C(=O)Nc3c([2H])c([2H])c(F)c([2H])c3[2H])=C2C)c1[2H] (racemic) [Compound 9, (±) 4-(Imidazolyl-2″3″5″-D3)-4-(D)-(4′-fluoro(phenyl-2′3′5′6′-D4))-(E)-retinamide] | 220 ± 130 | 100 ± 140 | 22600 | 8.92 | 10.28 | 2.67 | 1615.81 | tumor regression [3]: 67%; tumor regression [4]: 37% |
| CC1=C(/C=C/C(C)=C/C=C/C(C)=C/C(=O)Nc2ccc(F)cc2)C(C)(C)CCC1=O [Compound 16, 4-Oxo-(4′-fluoro(phenyl))-(E)-retinamide] |  |  |  | 9.06 | 12.05 |  |  |  |
| CC1=C(/C=C/C(C)=C/C=C/C(C)=C/C(=O)Nc2ccccc2)C(C)(C)CCC1n1ccnc1 (centres unmarked) [VNLG-153, (2E,4E,6E,8E)-9-(3-imidazolyl-2,6,6-trimethylcyclohex-1-enyl)-3,7-dimethyl-N-phenylnona-2,4,6,8-tetraenamide] |  |  |  |  |  |  |  | anti-proliferative and anti-metastatic activities [2]: potent |
| [2H]C1(n2ccnc2)CCC(C)(C)C(/C=C/C(C)=C/C=C/C(C)=C/C(=O)Nc2ccc(F)cc2)=C1C (racemic) [Compound 4, (±) 4-(Imidazolyl)-4-(D)-(4′-fluoro(phenyl))-(E)-retinamide] | 230 ± 250 | 140 ± 230 | 17600 | 9.06 | 12.05 | 2.50 | 1031.65 | clearance from systemic circulation (plasma concentration versus time profile) [1]: could not be detected after 8 hours; systemic exposure [1]: very low systemic exposures; overall Rank by Total Score [1]: 2nd; reduction of tumor growth [3]: 95%; tumor regression [4]: 6.6% |
| [2H]c1c([2H])c(NC(=O)/C=C(C)/C=C/C=C(C)/C=C/C2=C(C)C([2H])(n3ccnc3)CCC2(C)C)c([2H])c([2H])c1F (racemic) [Compound 8, (±) 4-(Imidazolyl)-4-(D)-(4′-fluoro(phenyl-2′3′5′6′-D4))-(E)-retinamide] | 330 ± 140 | 110 ± 200 | 15500 | 8.48 | 10.20 | 0.75 | 1361.22 | clearance from systemic circulation (plasma concentration versus time profile) [1]: could not be detected after 8 hours; systemic exposure [1]: very low systemic exposures; overall Rank by Total Score [1]: 3rd; reduction of tumor growth [3]: 95%; reduction of tumor growth [4]: 93% |
